This passage reports GTP hydrolysis % results from paper PMC11484933, “Active state structures of a bistable visual opsin bound to G proteins” (Nature Communications, 2024).

One test concerns the target T1, jsGiq (Gαiqβ1γ2) (Homo sapiens, UniProt P63096, A31R/D193S/L194I/D337C/T340K/V342T/I344L/K345Q/D350E/G352N/F354V).
T1 construct: gene GNAI1; heterotrimer from High Five insect cells, His tag removed with HRV 3C
The experiment in a line: GTPase-Glo luminescence assay. In kind it is biochemical. The following applies: 2 uM G protein, 2 uM GTP stock mixed 1:1; 20 C; with and without JSR1-ATR6.11.

In test [1] the target is T2, hGi (Gαi1β1γ1 heterotrimer) (Homo sapiens, UniProt P63096).
T2 construct: gene GNAI1; human Galphai1 with N-terminal TEV-cleavable deca-His tag from E. coli BL21(DE3); Gbeta1gamma1 from transducin of bovine retinae
T2 sequence (P63096 2-354): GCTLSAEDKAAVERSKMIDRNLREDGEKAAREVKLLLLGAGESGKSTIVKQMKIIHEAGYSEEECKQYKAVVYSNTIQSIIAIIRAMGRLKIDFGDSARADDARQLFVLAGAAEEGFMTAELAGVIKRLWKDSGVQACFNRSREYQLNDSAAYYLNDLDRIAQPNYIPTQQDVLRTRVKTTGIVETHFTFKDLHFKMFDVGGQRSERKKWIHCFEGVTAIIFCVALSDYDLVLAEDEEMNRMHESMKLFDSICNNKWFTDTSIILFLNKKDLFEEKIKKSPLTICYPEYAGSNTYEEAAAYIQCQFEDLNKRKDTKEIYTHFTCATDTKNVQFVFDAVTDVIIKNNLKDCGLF
T2 sequence (P62871 2-340 partner): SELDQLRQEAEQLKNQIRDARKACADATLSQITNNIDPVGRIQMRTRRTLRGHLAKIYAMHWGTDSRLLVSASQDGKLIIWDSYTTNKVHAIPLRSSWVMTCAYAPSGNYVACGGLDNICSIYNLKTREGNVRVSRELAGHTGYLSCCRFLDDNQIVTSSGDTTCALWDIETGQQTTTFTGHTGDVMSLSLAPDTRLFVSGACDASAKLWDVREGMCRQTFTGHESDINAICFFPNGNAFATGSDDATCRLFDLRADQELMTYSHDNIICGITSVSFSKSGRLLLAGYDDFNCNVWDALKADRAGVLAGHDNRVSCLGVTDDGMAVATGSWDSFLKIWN
T2 sequence (P02698 2-71 partner): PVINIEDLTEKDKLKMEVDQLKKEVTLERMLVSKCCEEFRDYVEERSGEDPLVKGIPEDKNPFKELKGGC
Briefly: GTPase-Glo luminescence assay. In kind it is biochemical. To be noted: 2 uM G protein, 2 uM GTP stock mixed 1:1; 20 C; with and without JSR1-ATR6.11.

T1 sequence (P63096 2-354 A31R/D193S/L194I/D337C/T340K/V342T/I344L/K345Q/D350E/G352N/F354V): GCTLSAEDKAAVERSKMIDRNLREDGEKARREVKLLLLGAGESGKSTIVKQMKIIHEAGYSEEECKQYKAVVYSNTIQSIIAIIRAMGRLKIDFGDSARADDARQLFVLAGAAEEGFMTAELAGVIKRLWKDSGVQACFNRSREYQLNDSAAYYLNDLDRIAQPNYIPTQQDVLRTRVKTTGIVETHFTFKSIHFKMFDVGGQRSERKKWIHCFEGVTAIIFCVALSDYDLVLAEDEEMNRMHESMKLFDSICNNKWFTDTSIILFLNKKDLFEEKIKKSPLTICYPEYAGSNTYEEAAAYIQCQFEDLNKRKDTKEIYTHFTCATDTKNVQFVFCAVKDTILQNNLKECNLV
T1 sequence (P62873 2-340 partner): as the sequence (P62871 2-340 partner) above
T1 sequence (P59768 2-68 partner): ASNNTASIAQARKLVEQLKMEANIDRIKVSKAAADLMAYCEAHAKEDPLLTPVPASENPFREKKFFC

As to `Nc1nc2c(ncn2[C@@H]2O[C@H](COP(=O)(O)OP(=O)(O)OP(=O)(O)O)[C@@H](O)[C@H]2O)c(=O)[nH]1` [GTP], the GTP hydrolysis % entry on jsGiq (Gαiqβ1γ2) is “An in vitro activity assay showed that this chimera retains intrinsic GTPase activity”; in test [1], “GTPase-Glo assay showing GTP depletion for hGi and jsGiq samples”.
